From patent publication US11485729B2, “Substituted pyridazinone compound” (Shenzhen TargetRx, Inc., priority 2018, dated 2022)

Columns and labels:
[1] = Metabolic stability evaluation in human liver microsomes; type: in vitro ADME; settings: pH 7.4, Human liver microsome, 0.5 mg/mL protein, 1 μM compound
Experimental: (2) Metabolic Stability Evaluation
Microsome assay: human liver microsomes: 0.5 mg/mL, Xenotech; rat liver microsomes: 0.5 mg/mL, Xenotech; coenzyme (NADPH/NADH): 1 mM, Sigma Life Science; magnesium chloride: 5 mM, 100 mM phosphate buffer (pH 7.4).
Preparation of stock solutions: Powder of the example compounds were accurately weighed and dissolved in DMSO to 5 mM respectively.
Preparation of phosphate buffer (100 mM, pH7.4): A pre-prepared 0.5M potassium dihydrogen phosphate (150 mL) was mixed with 0.5M dibasic potassium phosphate (700 mL). The pH of the mixture was adjusted to 7.4 with 0.5M dibasic potassium phosphate solution. The mixture was diluted 5-fold with ultrapure water before use, and magnesium chloride was added to obtain a phosphate buffer (100 mM) containing 100 mM potassium phosphate, 3.3 mM magnesium chloride, pH 7.4.
A NADPH regeneration system solution (containing 6.5 mM NADP, 16.5 mM G-6-P, 3 U/mL G-6-P D, 3.3 mM magnesium chloride) was prepared and placed on wet ice prior to use.
Preparation of stop solution: an acetonitrile solution containing 50 ng/mL propranolol hydrochloride and 200 ng/mL tolbutamide (internal standard). 25057.5 μL of phosphate buffer (pH 7.4) was taken into a 50 mL centrifuge tube, to which 812.5 μL of human liver microsomes were added, and mixed to obtain a liver microsome dilution with a protein concentration of 0.625 mg/mL. 25057.5 μL of phosphate buffer (pH 7.4) was taken into a 50 mL centrifuge tube, to which 812.5 μL of SD rat liver microsomes were added, and mixed to obtain a liver microsome dilution with a protein concentration of 0.625 mg/mL.
Incubation of the samples: The stock solutions of the respective compounds were respectively diluted to 0.25 mM with an aqueous solution containing 70% acetonitrile, and used as a working solution, ready for use. 398 μL of the dilutions of human liver microsomes and rat liver microsomes were added to 96-well incubation plates (N=2), respectively, and 2 μL of 0.25 mM working solution was added respectively and mixed.
Metabolic stability assay: 300 μL of pre-chilled stop solution was added to each well of 96-well deep well plates and placed on ice as stop plates. The 96-well incubation plates and NADPH regeneration system were placed in a 37° C. water bath, shaken at 100 rpm and pre-incubated for 5 min. 80 μL of incubation solution was taken out from each well of the incubation plates and added to the stop plates, mixed, and replenished with 20 μL of NADPH regeneration system solution as a 0-min sample. 80 μL of NADPH regeneration system solution was added to each well of the incubation plates to start the reaction and start counting. […] Separately, 100 μL of the reaction solutions was taken at 10, 30, and 90 min after the reaction, respectively, added to stop plates, and vortexed for 3 minutes to terminate the reaction. The stop plates were centrifuged at 5000×g at 4° C. for 10 min. 100 μL of the supernatant was added to a 96-well plate to which 100 μL of distilled water was previously added, mixed, and analyzed by LC-MS/MS.
Data analysis: The peak areas of the corresponding compounds and internal standard were detected by LC-MS/MS system, and the ratio of the peak area of the compounds to the internal standard was calculated.
The metabolic stability of the compounds in human and rat liver microsomes was evaluated by simultaneously testing and comparing the compounds disclosed herein and the non-deuterated compound. The non-deuterated compound MGL-3196 was used as a control sample.

[2] = preclinical toxicology, clinical phase 1 and phase II data; cited from earlier work

With `[2H]c1c(Cl)c(Oc2cc(C(C)C)c(=O)[nH]n2)c(Cl)c([2H])c1-n1nc(C#N)c(=O)[nH]c1=O` [Compound M-4, 2-(3,5-dichloro-4-((5-isopropyl-6-oxo-1,6-dihydropyridazin-3-yl)oxy)phenyl-2,6-d2)-3,5-dioxo-2,3,4,5-tetrahydro-1,2,4-triazine-6-carbonitrile] the half-life at 1 μM [1] was over 16.7 h and the microsomal CLint at 1 μM [1] was 0.1 to 2 µL/min/mg.

For `CC(C)c1cc(Oc2c(Cl)cc(-n3nc(C#N)c(=O)[nH]c3=O)cc2Cl)n[nH]c1=O` [MGL-3196, 2-(3,5-dichloro-4-((5-isopropyl-6-oxo-1,6-dihydropyridazin-3-yl)oxy)phenyl)-3,5-dioxo-2,3,4,5-tetrahydro-1,2,4-triazine-6-carbonitrile, reference compound], the “effect on the central thyroid axis, heart rate or bone” value [2] is listed as “no inhibitory effect”, the liver enzymes [2] is listed as “no increase of the liver enzymes has been observed” and the half-life at 1 μM [1] is listed as under 8.33 h. For the same molecule, the microsomal CLint at 1 μM [1] was 2.5 to 3 µL/min/mg.

`[2H]c1c(Cl)c(Oc2cc(C(C([2H])([2H])[2H])C([2H])([2H])[2H])c(=O)[nH]n2)c(Cl)c([2H])c1-n1nc(C#N)c(=O)[nH]c1=O` [Compound M-3, 2-(3,5-dichloro-4-((6-oxo-5-(propan-2-yl-1,1,1,3,3,3-d6)-1,6-dihydropyridazin-3-yl)oxy)phenyl-2,6-d2)-3,5-dioxo-2,3,4,5-tetrahydro-1,2,4-triazine-6-carbonitrile] showed a half-life at 1 μM [1] of over 16.7 h and a microsomal CLint at 1 μM [1] of 0.1 to 2 µL/min/mg.

In the case of `[2H]C([2H])([2H])C(C)c1cc(Oc2c(Cl)cc(-n3nc(C#N)c(=O)[nH]c3=O)cc2Cl)n[nH]c1=O` (stereo not drawn) [Compound M-1, 2-(3,5-dichloro-4-((6-oxo-5-(propan-2-yl-1,1,1-d3)-1,6-dihydropyridazin-3-yl)oxy)phenyl)-3,5-dioxo-2,3,4,5-tetrahydro-1,2,4-triazine-6-carbonitrile], the half-life at 1 μM [1] is reported as over 16.7 h and the microsomal CLint at 1 μM [1] is reported as 0.1 to 2 µL/min/mg.

`[2H]C([2H])([2H])C(c1cc(Oc2c(Cl)cc(-n3nc(C#N)c(=O)[nH]c3=O)cc2Cl)n[nH]c1=O)C([2H])([2H])[2H]` [Compound M-2, 2-(3,5-dichloro-4-((6-oxo-5-(propan-2-yl-1,1,1,3,3,3-d6)-1,6-dihydropyridazin-3-yl)oxy)phenyl)-3,5-dioxo-2,3,4,5-tetrahydro-1,2,4-triazine-6-carbonitrile] gave a half-life at 1 μM [1] of over 16.7 h and a microsomal CLint at 1 μM [1] of 0.1 to 2 µL/min/mg.
